Key:
C. neoformans = test: Inhibition of growth of Cryptococcus neoformans, Example 2 antifungal assay; type: cell-based; settings: ½ strength PDB, 30° C., A595
Description: (§1) The inhibitory effects of the plant defensins on the growth of Candida albicans, Aspergillus fumigatus (obtained from the National Mycology Reference Centre, South Australia Pathology at the Women's and Children's Hospital, Adelaide, Australia), C. glabrata, C. tropicalis, A. flavus, A. niger, A. fumigants, Cryptococcus neoformans and C. gattii (obtained from Dee Carter, University of Sydney, New South Wales, Australia) are measured essentially as described by Broekaert et al. (1990) FEMS Microbiol Lett 69:55-59.
(§2) Spores of A. flavus. A. niger and A. fumigatus are isolated from sporulating fungus growing on ½ strength Sabouraud dextrose agar. Spores were removed from the plates by the addition of ½ strength potato dextrose broth (PDB). C. albicans, C. glabrata, C. tropicalis, C. neoformans and C. gattii cells are grown in Yeast Peptone Broth (YPD) for 16 h. Spore and cell concentrations are measured using a hemocytometer.
(§3) Antifungal assays are conducted in 96 well microtitre plates essentially as herein described. Wells are loaded with 20 μL of filter sterilized (0.22 μm syringe filter, Millipore) defensin (10× stock for each final concentration) or water and 80 μL of 5×10^4 spores/mL (A. flavus, A. niger, A. fumigatus), 5,000 cells/mL (C. albicans, C. glabrata, C. tropicalis) or 1×10^6 cells/mL (C. neoformans, C. gattii) in ½ strength PDB. The plates are incubated at 30° C. Fungal growth is assayed by measuring optical density at 595 nm (A595) using a microtitre plate reader (SpectraMax Pro M2; Molecular Devices. Growth is allowed to proceed until the optical density (OD) of the fungus in the absence of any test defensin reached an OD of 0.2. Each test is performed in duplicate.

B. subtilis = test: Inhibition of the growth of Bacillus subtilis (OD595, 18 hours); type: cell-based; settings: for IC50: Mueller-Hinton Broth, 37° C., 18 hours, up to 20 μM, read-out: IC50 against B. subtilis
Description: (§4) A single E. coli or B. subtilis colony was used to inoculate 5 ml of Luria-Bertani media and grown overnight at 37° C. The following day, the optical density of the culture was measured and the bacteria diluted to an optical density at 600 nm (OD600) of 0.01 in Mueller-Hinton Broth. Diluted E. coli or B. subtilis were added to 96-well plates with defensins at concentrations of 20 μM, 10 μM, 5 μM, 2.5 μM, 1.25 μM, 0.625 μM or 0.3125 μM. Plates were read at OD595 to obtain time zero data points. Plates were incubated at 37° C. for 18 hours before reading again at OD595 to assess the amount of bacterial growth.

C. tropicalis = test: Inhibition of growth of C. tropicalis, Example 2 antifungal assay; type: cell-based; settings: ½ strength PDB, 30° C., A595
Description: as §1, §2, §3

M. fulvum = test: Inhibition of growth of Microsporum fulvum by plant defensins (microtitre A595 antifungal assay); type: cell-based; settings: ½ strength PDB, 30° C., A595
Description: (§5) The inhibitory effects of the plant defensins on the growth of Trichophyton rubrum, T. interdigitale, Microsporum fulvum and C. albicans (all obtained from the National Mycology Reference Centre, South Australia Pathology at the Women's and Children's Hospital, Adelaide, Australia) are measured essentially as described by Broekaert et al. (1990) FEMS Microbiol Lett 69:55-59.
as §2, with “T. rubrum, T. interdigitale” for “A. flavus. A. niger”, “M. fulvum” for “A. fumigatus”, “albicans” for “albicans, C. glabrata, C. tropicalis, C. neoformans and C. gattii”
as §3, with “Ξ m” for “μm”, “(T. rubrum, T. interdigitale, M. fulvum) or” for “(A. flavus, A. niger, A. fumigatus),”, “albicans)” for “albicans, C. glabrata, C. tropicalis) or 1×10^6 cells/mL (C. neoformans, C. gattii)”

C. albicans = test: Inhibition of growth of Candida albicans, Example 2 antifungal assay; type: cell-based; settings: Table 4; ½ strength PDB, 30° C., A595
Description: as §1, §2, §3

A. fumigatus = test: Inhibition of growth of Aspergillus fumigatus, Example 2 antifungal assay; type: cell-based; settings: ½ strength PDB, 30° C., A595
Description: as §1, §2, §3

E. coli = type: cell-based, Escherichia coli; settings: for IC50: Mueller-Hinton Broth, 37° C., 18 hours, up to 20 μM, read-out: IC50 against E. coli
Description: as §4

C. gattii = test: Inhibition of growth of C. gattii, Example 2 antifungal assay; type: cell-based; settings: ½ strength PDB, 30° C., A595
Description: as §1, §2, §3

C. glabrata = test: Inhibition of growth of C. glabrata, Example 2 antifungal assay; type: cell-based; settings: ½ strength PDB, 30° C., A595
Description: as §1, §2, §3

A. niger = test: Inhibition of growth of A. niger, Example 2 antifungal assay; type: cell-based; settings: ½ strength PDB, 30° C., A595
Description: as §1, §2, §3

A. flavus = test: Inhibition of growth of A. flavus, Example 2 antifungal assay; type: cell-based; settings: ½ strength PDB, 30° C., A595
Description: as §1, §2, §3

[1] = test system: Trichophyton rubrum, T. interdigitale, Microsporum fulvum and C. albicans; test: Inhibition assays of Example 1, summary across the range of fungal pathogens; type: cell-based; settings: summary of Table 3, at the concentrations tested
Description: as §5
as §2, with “T. rubrum, T. interdigitale” for “A. flavus. A. niger”, “M. fulvum” for “A. fumigatus”, “albicans” for “albicans, C. glabrata, C. tropicalis, C. neoformans and C. gattii”
as §3, with “Ξ m” for “μm”, “(T. rubrum, T. interdigitale, M. fulvum) or” for “(A. flavus, A. niger, A. fumigatus),”, “albicans)” for “albicans, C. glabrata, C. tropicalis) or 1×10^6 cells/mL (C. neoformans, C. gattii)”

T. albicans = test: Inhibition of growth of C. albicans by plant defensins, Example 1 (microtitre A595 antifungal assay); type: cell-based; settings: Table 3; ½ strength PDB, 30° C., A595
Description: as §5
as §2, with “T. rubrum, T. interdigitale” for “A. flavus. A. niger”, “M. fulvum” for “A. fumigatus”, “albicans” for “albicans, C. glabrata, C. tropicalis, C. neoformans and C. gattii”
as §3, with “Ξ m” for “μm”, “(T. rubrum, T. interdigitale, M. fulvum) or” for “(A. flavus, A. niger, A. fumigatus),”, “albicans)” for “albicans, C. glabrata, C. tropicalis) or 1×10^6 cells/mL (C. neoformans, C. gattii)”

T. rubrum = test: Inhibition of growth of Trichophyton rubrum by plant defensins (microtitre A595 antifungal assay); type: cell-based; settings: ½ strength PDB, 30° C.
Description: as §5
as §2, with “T. rubrum, T. interdigitale” for “A. flavus. A. niger”, “M. fulvum” for “A. fumigatus”, “albicans” for “albicans, C. glabrata, C. tropicalis, C. neoformans and C. gattii”
as §3, with “Ξ m” for “μm”, “(T. rubrum, T. interdigitale, M. fulvum) or” for “(A. flavus, A. niger, A. fumigatus),”, “albicans)” for “albicans, C. glabrata, C. tropicalis) or 1×10^6 cells/mL (C. neoformans, C. gattii)”

T. interdigitale = test: Inhibition of growth of T. interdigitale by plant defensins (microtitre A595 antifungal assay); type: cell-based, Trichophyton interdigitale; settings: ½ strength PDB, 30° C.
Description: as §5
as §2, with “T. rubrum, T. interdigitale” for “A. flavus. A. niger”, “M. fulvum” for “A. fumigatus”, “albicans” for “albicans, C. glabrata, C. tropicalis, C. neoformans and C. gattii”
as §3, with “Ξ m” for “μm”, “(T. rubrum, T. interdigitale, M. fulvum) or” for “(A. flavus, A. niger, A. fumigatus),”, “albicans)” for “albicans, C. glabrata, C. tropicalis) or 1×10^6 cells/mL (C. neoformans, C. gattii)”

[2] = at the concentrations tested (0.3125-20 μM)

Substance | IC50 against C. neoformans (C. neoformans) | IC50 (B. subtilis) | IC50 against C. tropicalis (C. tropicalis) | IC50 against M. fulvum (M. fulvum) | IC50 against C. albicans (C. albicans) | IC50 against A. fumigatus (A. fumigatus) | IC50 (E. coli) | IC50 against C. gattii (C. gattii) | IC50 against C. glabrata (C. glabrata) | IC50 against A. niger (A. niger) | IC50 against A. flavus (A. flavus) | Activity across the range of fungal pathogens [1] | IC50 against T. albicans (T. albicans) | IC50 against T. rubrum (T. rubrum) | IC50 against T. interdigitale (T. interdigitale) | Inhibition of growth of B. subtilis (B. subtilis; [2]) | Inhibition of growth of E. coli (E. coli; [2])
HXL009: Class I plant defensin from Zea mays (TVCMRHNNFYHGPCMSNKDCANSCVQHNLGVGGYCRGKIPFNKECMCTFEC; HXL009 Zea mays) | 8 µg/mL | > 20 µM | 12 µg/mL | >100 µg/mL | >100 µg/mL | >100 µg/mL | > 20 µM | 38 µg/mL | >100 µg/mL | >100 µg/mL | >100 µg/mL | did not display any activity | >100 µg/mL | – | – | – | –
HXL013: Class I plant defensin from Glycine max (KDCLTRRHGFQGRCLFDRQCAHVCRSDGFIGGQCRGPLRKCFCSRPC; HXL013 Glycine max) | 9 µg/mL | 10 µM | 12 µg/mL | 5.5 µg/mL | 20 µg/mL | >100 µg/mL | > 20 µM | 22 µg/mL | 25 µg/mL | >100 µg/mL | >100 µg/mL | intermediate activity | 20 µg/mL | 22 µg/mL | – | – | –
HXL015: Class I plant defensin from Oryza sativa (RHCLSQSHRFKGMCVSSNNCANVCRTESFPDGECKSHGLERKCFCKKVC; HXL015 Oryza sativa) | – | – | – | 12.5 µg/mL | 5 µg/mL | – | – | – | – | – | – | intermediate activity | – | 10 µg/mL | 3.5 µg/mL | – | –
NaD1: Solanaceous Class II plant defensin from Nicotiana alata (RECKTESNTFPGICITKPPCRKACISEKFTDGHCSKILRRCLCTKPC; NaD1 Nicotiana alata) | 3 µg/mL | – | 2.5 µg/mL | 5.3 µg/mL | 20 µg/mL | 8 µg/mL | > 20 µM | 5 µg/mL | 14 µg/mL | 16 µg/mL | 20 µg/mL | – | 20 µg/mL | 8 µg/mL | 10 µg/mL | did not inhibit the growth | did not inhibit the growth

From patent publication US20180193412A1, “Method of In Vivo Treatment” (Hexima Limited, priority 2015, published 2018)
